Values of other authors, collected in US20190022221A1 (priority 2015, published 2019).

Key:
[1] = in vivo
[2] = system: Zaire Ebola virus (ZEBOV)
[3] = system: Venezuelan equine encephalitis virus (VEEV)
Acinetobacter baumannii = details: 1.1-millimeter-thick soft agar layer, light 100 milliWatts per square centimeter

Oc1cccc(-c2c3nc(c(-c4cccc(O)c4)c4ccc([nH]4)c(-c4cccc(O)c4)c4nc(c(-c5cccc(O)c5)c5ccc2[nH]5)CC4)C=C3)c1 [Foscan, Tetra (m-hydroxyphenyl) chlorin]
duration of skin photosensitivity [1]: approximately 2 weeks

[N-]=[N+]=Nc1cccc2c(I)cccc12 [INA, 1,5-iodonaphthyl azide]
infectivity of ZEBOV after INA treatment [2]: completely noninfectious | inactivation of virulent strain of VEEV [3]: efficiently inactivate

CC(=O)[O-].CC(=O)[O-].CCc1c(CC)c2cc3nc(cnc4cc(OCCOCCOCCOC)c(OCCOCCOCCOC)cc4ncc4nc(cc1[n-]2)C(CCCO)=C4C)C(C)=C3CCCO.O.[Lu+3] [Lutetium texaphryin, Motexafin lutetium]
duration of skin photosensitivity [1]: 24 to 48 h

[Mn(PaPy3)(NO)](ClO4)
clearance of bacteria from treated areas of the plates (Acinetobacter baumannii): effectively cleared the bacteria
